Reference: patent publication US20110059122A1, “Inhibition of the Survival of Oral Cavity Cancer by Cyclohexenone Compounds from Antrodia Camphorata” (GOLDEN BIOTECHNOLOGY CORPORATION, priority 2009, published 2011)

Test system: oral cavity cancer cell line SCC-25
Assay: In vitro survival assay (MTT) for anti-oral cavity cancer effects
Format: cell-based
Details: Homo sapiens, SCC-25 cells, 48 hours treatment, absorbance 570 nm, read-out: IC50 (half inhibition concentration), survival of oral cavity cancer cells
Procedure: Inhibiting effects of oral cavity cancer cells by cyclohexenone compounds of Antrodia camphorata from example 1 were assessed according to the anticancer-drug screening model of National Cancer Institute (NCI). The compound 4-hydroxy-2,3-dimethoxy-6-methyl-5-(3,7,11-trimethyl-dodeca-2,6,10-trienyl)-cyclohex-2-enone from example 1 was added into the culture media of oral cavity cancer cell line SCC-25 to determine the survival rates. Survival of cell was analyzed using MTT assay. SCC-25 cell line was a human squamous cell carcinoma cell line.
MTT assay is commonly used to analyze cell proliferation, survival rate of viable cells and cytotoxicity. MTT (3[4,5-dimethylthiazol-2-yl]-2,5-diphenyltetrazolium bromide) is a yellow dye which can be converted to water-insoluble purple formazan on the reductive cleavage of its tetrazolium ring by the succinate tetrazolium reductase in mitochondria of cells. The amount of formazan produced is used to detect the number of viable cells and calculate the survival rates.
The SCC-25 cells were cultivated in DMEM/F12(1:1) medium supplemented with 10% fetal bovine serum and 400 ng/ml of hydrocortisone at 37° C., 5% CO2 for 24 hours. Proliferated cells were washed once with PBS, treated with 1× trypsin-EDTA, and centrifuged at 1200 rpm for 5 min. […] The absorbances were measured at 570 nm with an ELISA Reader to determine the survival rates.

## COC1=C(OC)C(O)C(C/C=C(\C)CC/C=C(\C)CCC=C(C)C)C(C)C1=O (stereo not shown) [formula 2, 4-hydroxy-2,3-dimethoxy-6-methyl-5-(3,7,11-trimethyl-dodeca-2,6,10-trienyl)-cyclohex-2-enone]
  IC50: 1.05 µg/mL
